Results on 2 molecules are retold here after publication PMC8222254, “Self-assembly of an anion receptor with metal-dependent kinase inhibition and potent in vitro anti-cancer properties” (Nature Communications, 2021).

Values joined by “and” are separate entries in the source; they are usually repeats but may differ in a detail not shown here. Identical values can stand only once.

Data set [1] has as its target 140 purified human kinases (Rattus norvegicus, UniProt Q62868). As to the kind of experiment: Kinase inhibition screen, cell-free 33P ATP assay at 10 μM. Format: biochemical. Summed up:
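Radiometric ^33P ATP cell-free format with purified enzymes; both complexes run at 10 μM in duplicate, results plotted on a kinome map via HGNC symbols.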

Data set [2] concerns the target T1, recombinant human AMPK (α1β2γ1) (Homo sapiens, UniProt Q13131).
T1 construct: purchased Promega
As to the kind of experiment: Substrate competition assay (ADP-Glo Kinase Assay). It is filed as biochemical. As to the method: (§1) ATP competition kinase assays were performed by the MRC Protein Phosphorylation and Ubiquitination Unit International Centre for Kinase Profiling (University of Dundee). Inhibition of recombinant human AMPK (α1β2γ1) by 10μM [L2Cu3]^6+ or [L2Zn3]^6+ was evaluated at five different ATP concentrations (0.5, 2, 20, 200 and 500 µM ATP). Substrate competition assays were performed using the ADP-Glo Kinase Assay (Promega) and recombinant human AMPK (α1β2γ1) (Promega) with concentrations of the provided AMPK substrate (SAMStide substrate, Promega) ranging from 1 to 15 mg/ml. Following pre-incubation of substrate with kinase for 5 min 10 µM [L2Cu3]^6+, [L2Zn3]^6+ or solvent control and 50 µM ATP was added to start the kinase reaction. For determination of the effects of AMP on AMPK inhibition by [L2Zn3]^6+, the ADP-Glo Kinase Assay (Promega) was performed in presence of varying of AMP (0, 80, 160 μM).
Background: ADP-Glo first removes unused ATP, then detects ADP through luciferase.

Data set [3] has as its target recombinant human AMPK (pT172 AMPKα1, pS108 AMPKβ1) (Homo sapiens, UniProt Q13131). As to the kind of experiment: In vitro phosphatase assay with recombinant kinase, immunoblotting. Conditions: 50 μM complex, 4 h, with ATP. It is filed as biochemical. As to the method:
800 ng of purified recombinant human AMPK (α1β2γ1) or Src kinase (MRC PPU, International Centre for Kinase Profiling, University of Dundee) was incubated with 50 μM [L2Cu3]^6+, [L2Zn3]^6+, or vehicle control in 50 mM Tris HCl pH 7.5 containing 50 μM ATP for 4 h at 37 °C. For [L2Zn3]^6+ time course and concentration titration experiments, 800 ng recombinant human AMPK was used (α1β2γ1 AMPK isoform for pT172 AMPKα1 detection or α2β1γ1 AMPK isoform for pS108 AMPKβ1 detection). For evaluation of ATP dependency and influence of AMP, 50 µM ATP was replaced with 50 µM AMP or omitted. Reactions were stopped by addition of Laemmli’s buffer (Biorad) to 1x and heating at 95 °C for 5 min before analysis by SDS PAGE and immunoblotting for detection of specific phosphorylated amino acids of AMPK and Src proteins.
Protein lysates and recombinant proteins were resolved on 15% SDS polyacrylamide gels. Proteins were electroblotted onto nitrocellulose membrane by wet transfer in 1xTris Glycine buffer (Biorad) at 35 mA overnight at room temperature. After blocking of membranes, these were incubated with primary antibody overnight at 4 °C before addition of rabbit or mouse secondary antibody (HRP-conjugated; 1:5000, Dako P0448 or P0260) for 1 h at room temperature and development of blots by enhanced chemiluminescence. Primary antibodies were: anti-Src (total) (Cell Signalling Technology #2123 1:1000), anti-phosphorylated Src (Y527) (Cell Signalling Technology #21055 1:1000), anti-phosphorylated Src (Y416) (Cell Signalling Technology #69435 1:1000), anti-AMPKα (total) (Cell Signalling Technology #2532 1:1000), anti-phosphorylated AMPKα (T172) (Cell Signalling Technology #2535 1:1000), anti-AMPKβ1 (total) (Cell Signalling Technology #4150 1:1000), anti-phosphorylated AMPKβ1 (S108) (abcam ab156890 1:500), anti-phospho-Tyr (pan) (Cell Signalling Technology #8954 1:2000), anti-p53 (Santa Cruz, DO-1 clone, 1:1000,), anti-phosphorylated LDH-A (Y10) (Cell Signalling Technology #8176 1:1000), anti-LDH-A/B (total) (abcam ab134187 1:5000), anti-β-actin (Merck MAB1501, 1:40,000). Quantification of signals was performed by densitometry using Image J software. Uncropped and unprocessed scans are provided in the Source Data file.

The target in data set [4] is T2, AMPK (Homo sapiens, UniProt Q13131).
T2 construct: purchased Promega
As to the kind of experiment: ADP-Glo Kinase Assay in presence of varying AMP. It is filed as biochemical. As to the method: as §1

Data set [5] concerns ARPE-19. Put plainly: TSQ cellular localisation / uptake study. Conditions: ARPE-19, 25μM, 1 hour. It is filed as cell-based, human. As to the method:
(§2) 48 h following cell seeding in Lumox chamber slides (8-well, Sarstedt), cells (ARPE-19 and HCT116 p53^+/+ were treated for 1 h at 37 °C with 25 μM of [L2Zn3]^6+ or DMSO solvent control before removal and washout three times using complete phenol-red free media. 25 μM TSQ (Enzo Life Sciences) was then added for 30 min for detection of cellular zinc before its washout (three washes) and analyses by confocal microscopy (Zeiss LSM880).

Data set [6] deals with HCT116 p53+/+. Put plainly: TSQ cellular localisation / uptake study. It is filed as cell-based, human. Conditions: 25μM, 1 hour. As to the method:
as §2

T1 sequence (Q13131 whole entry): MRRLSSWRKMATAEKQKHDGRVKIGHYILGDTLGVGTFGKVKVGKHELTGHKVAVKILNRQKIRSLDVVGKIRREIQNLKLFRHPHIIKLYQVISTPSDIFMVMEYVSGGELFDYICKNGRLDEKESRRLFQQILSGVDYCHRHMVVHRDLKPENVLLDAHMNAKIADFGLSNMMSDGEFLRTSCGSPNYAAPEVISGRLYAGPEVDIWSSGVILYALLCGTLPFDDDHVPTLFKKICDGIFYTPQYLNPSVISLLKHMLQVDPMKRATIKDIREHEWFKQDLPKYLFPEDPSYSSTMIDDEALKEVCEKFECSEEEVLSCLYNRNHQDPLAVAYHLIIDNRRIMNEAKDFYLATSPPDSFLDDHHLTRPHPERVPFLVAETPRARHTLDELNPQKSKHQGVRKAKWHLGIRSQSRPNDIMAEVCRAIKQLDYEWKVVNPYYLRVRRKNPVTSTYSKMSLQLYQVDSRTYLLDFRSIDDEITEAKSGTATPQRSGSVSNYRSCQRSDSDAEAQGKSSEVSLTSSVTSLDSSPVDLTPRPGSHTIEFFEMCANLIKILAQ
T1 sequence (O43741 whole entry partner): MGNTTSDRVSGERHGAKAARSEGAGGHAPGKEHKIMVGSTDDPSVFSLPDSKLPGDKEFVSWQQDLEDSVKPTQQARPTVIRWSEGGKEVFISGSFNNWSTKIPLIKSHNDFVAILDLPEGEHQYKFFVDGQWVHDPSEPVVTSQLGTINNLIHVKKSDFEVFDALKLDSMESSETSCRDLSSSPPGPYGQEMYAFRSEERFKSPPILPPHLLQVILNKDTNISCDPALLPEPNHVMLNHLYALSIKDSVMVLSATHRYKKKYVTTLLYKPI
T1 sequence (P54619 whole entry partner): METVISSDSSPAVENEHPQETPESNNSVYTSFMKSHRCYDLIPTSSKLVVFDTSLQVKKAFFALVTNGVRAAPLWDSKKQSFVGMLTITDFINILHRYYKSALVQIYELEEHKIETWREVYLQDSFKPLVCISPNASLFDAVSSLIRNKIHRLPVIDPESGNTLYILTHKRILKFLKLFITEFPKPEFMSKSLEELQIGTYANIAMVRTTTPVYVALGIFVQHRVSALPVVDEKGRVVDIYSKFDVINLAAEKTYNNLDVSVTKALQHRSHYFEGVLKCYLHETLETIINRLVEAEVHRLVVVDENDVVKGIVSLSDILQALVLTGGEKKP
Sequence of 140 purified human kinases (Q62868 whole entry): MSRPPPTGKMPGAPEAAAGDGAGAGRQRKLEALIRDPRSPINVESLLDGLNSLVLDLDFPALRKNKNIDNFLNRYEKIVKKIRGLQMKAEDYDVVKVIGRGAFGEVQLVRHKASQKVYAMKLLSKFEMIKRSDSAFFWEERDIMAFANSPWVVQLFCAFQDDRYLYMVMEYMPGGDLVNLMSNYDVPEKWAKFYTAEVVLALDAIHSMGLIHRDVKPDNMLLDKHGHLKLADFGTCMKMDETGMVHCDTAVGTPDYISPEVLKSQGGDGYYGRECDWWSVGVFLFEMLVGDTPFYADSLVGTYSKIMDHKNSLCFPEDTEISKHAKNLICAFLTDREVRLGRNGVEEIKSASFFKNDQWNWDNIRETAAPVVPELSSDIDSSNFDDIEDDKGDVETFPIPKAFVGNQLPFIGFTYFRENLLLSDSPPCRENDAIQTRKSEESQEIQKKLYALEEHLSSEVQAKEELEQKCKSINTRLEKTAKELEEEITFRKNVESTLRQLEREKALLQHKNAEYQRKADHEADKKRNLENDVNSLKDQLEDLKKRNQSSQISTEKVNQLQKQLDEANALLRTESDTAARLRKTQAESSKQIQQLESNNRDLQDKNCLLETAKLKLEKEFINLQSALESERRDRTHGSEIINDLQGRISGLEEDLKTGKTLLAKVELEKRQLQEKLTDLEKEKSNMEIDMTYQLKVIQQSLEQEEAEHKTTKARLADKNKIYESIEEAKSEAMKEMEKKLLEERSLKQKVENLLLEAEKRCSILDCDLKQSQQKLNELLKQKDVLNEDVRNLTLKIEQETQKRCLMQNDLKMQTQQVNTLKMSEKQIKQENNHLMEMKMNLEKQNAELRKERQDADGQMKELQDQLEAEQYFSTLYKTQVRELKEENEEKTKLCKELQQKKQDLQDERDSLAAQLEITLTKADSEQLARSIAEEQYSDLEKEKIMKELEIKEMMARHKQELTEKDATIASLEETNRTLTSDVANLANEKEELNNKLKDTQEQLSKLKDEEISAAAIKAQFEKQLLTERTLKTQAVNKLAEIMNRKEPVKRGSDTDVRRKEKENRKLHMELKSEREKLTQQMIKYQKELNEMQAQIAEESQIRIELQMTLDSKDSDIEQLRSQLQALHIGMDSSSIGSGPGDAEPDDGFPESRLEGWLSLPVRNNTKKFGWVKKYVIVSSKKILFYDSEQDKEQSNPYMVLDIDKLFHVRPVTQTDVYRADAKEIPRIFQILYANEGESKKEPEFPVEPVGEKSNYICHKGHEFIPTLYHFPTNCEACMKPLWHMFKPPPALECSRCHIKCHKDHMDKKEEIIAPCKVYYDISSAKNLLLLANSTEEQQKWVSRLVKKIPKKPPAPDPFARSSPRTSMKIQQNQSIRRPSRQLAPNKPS
Sequence of recombinant human AMPK (pT172 AMPKα1, pS108 AMPKβ1) (Q13131 whole entry, canonical isoform): as the sequence (Q13131 whole entry) above
Sequence of recombinant human AMPK (pT172 AMPKα1, pS108 AMPKβ1) (O43741 whole entry partner, canonical isoform): as the sequence (O43741 whole entry partner) above
Sequence of recombinant human AMPK (pT172 AMPKα1, pS108 AMPKβ1) (P54619 whole entry partner, canonical isoform): as the sequence (P54619 whole entry partner) above
T2 sequence (Q13131 whole entry): as the sequence (Q13131 whole entry) above
T2 sequence (O43741 whole entry partner): as the sequence (O43741 whole entry partner) above
T2 sequence (P54619 whole entry partner): as the sequence (P54619 whole entry partner) above

For `[Cu+2].[Cu+2].[Cu+2].c1ccc(-c2csc(NCCN(CCNc3nc(-c4ccccn4)cs3)CCNc3nc(-c4ccccn4)cs3)n2)nc1.c1ccc(-c2csc(NCCN(CCNc3nc(-c4ccccn4)cs3)CCNc3nc(-c4ccccn4)cs3)n2)nc1` [[L2Cu3]6+], the “% activity” value is 16.5% in data set [1] (ROCK 2, Run 1) and 22.5% in data set [1] (ROCK 2, Run 2). Also, the “%AMPK Activity Remaining, Mean” value is 34.60% in data set [2] (Substrate 1 mg/ml); 20.90% in data set [2] (Substrate 2.5 mg/ml); 17.00% in data set [2] (Substrate 5 mg/ml); 25.40% in data set [2] (Substrate 10 mg/ml); 17.20% in data set [2] (Substrate 15 mg/ml). Besides, the “%AMPK Activity Remaining, individual replicates” value in data set [2] (Substrate 1 mg/ml) is 16.20% and 28.30% and 59.40%; in data set [2] (Substrate 2.5 mg/ml) it was 15.60% and 15.00% and 32.00%; in data set [2] (Substrate 5 mg/ml), 18.00% and 15.40% and 17.70%; in data set [2] (Substrate 10 mg/ml) it was 26.20% and 21.60% and 28.40%; in data set [2] (Substrate 15 mg/ml), 13.60% and 12.90% and 25.20%. For the same molecule, in data set [3], the “T172P levels of AMPKα detectable by immunoblotting” value is given as “significantly reduced”.

In the case of `CC(=O)[O-].CC(=O)[O-].CC(=O)[O-].CC(=O)[O-].CC(=O)[O-].CC(=O)[O-].[Zn+2].[Zn+2].[Zn+2].c1ccc(-c2csc(NCCN(CCNc3nc(-c4ccccn4)cs3)CCNc3nc(-c4ccccn4)cs3)n2)nc1.c1ccc(-c2csc(NCCN(CCNc3nc(-c4ccccn4)cs3)CCNc3nc(-c4ccccn4)cs3)n2)nc1` [[L2Zn3]6+], the “%AMPK Activity Remaining, Mean” value came out at 42.90% in data set [2] (Substrate 1 mg/ml); 28.10% in data set [2] (Substrate 2.5 mg/ml); 39.40% in data set [2] (Substrate 5 mg/ml); 43.70% in data set [2] (Substrate 10 mg/ml); 35.80% in data set [2] (Substrate 15 mg/ml). Besides, the “%AMPK Activity Remaining, individual replicates” value is 57.40% and 31.37% and 37.80% and 44.50% in data set [2] (Substrate 1 mg/ml); 30.60% and 40.90% and 18.40% and 22.50% in data set [2] (Substrate 2.5 mg/ml); 31.50% (2×) and 56.70% (2×) and 25.70% (2×) and 43.60% (2×) in data set [2] (Substrate 5 mg/ml); 40.20% and 42.80% and 35.20% and 56.50% in data set [2] (Substrate 10 mg/ml); 33.30% and 26.60% and 47.50% in data set [2] (Substrate 15 mg/ml). The AMPK activity remaining is on record as ~ 30% in data set [4] (in the absence of AMP) and 20-30% in data set [4] (in the presence of AMP (80 or 160 microM)). The “T172P levels of AMPKα detectable by immunoblotting” value in data set [3] is “significantly reduced”. The “cellular uptake (TSQ fluorescent signal)” value in data set [5] and in data set [6] was “increase in TSQ fluorescent signal” each time.
